Values quoted from earlier work as cited in patent publication US10858659B2, “Biosynthetic gene cluster of carrimycin” (SHENYANG FUYANG PHARMACEUTICAL TECHNOLOGY CO., LTD., priority 2015, dated 2020).

Experiments:
[1] = in vivo

Q: For Carrimycin, which in-vivo retention time is on record?
A: long

Q: And the absolute bioavailability (in vivo)?
A: high

Q: And the elimination half-life (in vivo)?
A: long

Q: And the “tissue concentration compared with blood plasma concentration” value (in vivo)?
A: higher than blood plasma concentration

Q: What about the tissue distribution (in vivo) of the same substance?
A: wide

Q: And the tissue penetrability (in vivo)?
A: high

Q: And the “oral administration absorption speed” value (in vivo, po)?
A: high

Q: What about the adverse reaction rate [1] of the same substance?
A: low

Q: What about the injury to livers [1] of the same substance?
A: little

Q: And the safety [1]?
A: good
